From patent US9023851B2 (Merck Patent GmbH, priority 2010, dated 2015)
pIC50: −log10 of the molar value.

Columns and labels:
Type in all cases: biochemical
[1] = target: T1, ZAP-70 (Homo sapiens, UniProt P43403); experiment: Zap70 enzymatic assay (Caliper LifeSciences technology)
T1 construct: purchased BPS Bioscience, CA, USA
T1 sequence (P43403 1-619): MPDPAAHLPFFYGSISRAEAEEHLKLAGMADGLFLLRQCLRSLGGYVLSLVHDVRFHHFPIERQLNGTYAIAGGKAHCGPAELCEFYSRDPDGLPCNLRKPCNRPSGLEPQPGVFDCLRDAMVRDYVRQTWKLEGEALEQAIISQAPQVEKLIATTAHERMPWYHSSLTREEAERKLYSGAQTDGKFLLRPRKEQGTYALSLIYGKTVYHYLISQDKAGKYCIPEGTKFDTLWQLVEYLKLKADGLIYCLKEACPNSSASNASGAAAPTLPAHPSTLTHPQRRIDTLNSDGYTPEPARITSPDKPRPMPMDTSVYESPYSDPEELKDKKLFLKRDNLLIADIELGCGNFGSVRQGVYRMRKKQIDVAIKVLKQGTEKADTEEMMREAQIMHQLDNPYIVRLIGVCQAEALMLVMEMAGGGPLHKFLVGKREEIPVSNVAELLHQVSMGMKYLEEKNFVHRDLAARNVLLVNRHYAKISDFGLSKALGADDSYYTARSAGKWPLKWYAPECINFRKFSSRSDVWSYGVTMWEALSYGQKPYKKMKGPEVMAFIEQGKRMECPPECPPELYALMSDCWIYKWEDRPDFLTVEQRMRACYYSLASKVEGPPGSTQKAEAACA
Method: (§1) Enzymatic Assays Using the Caliper LifeSciences Technology
(§2) The assays described here are performed on the Caliper Life Sciences LC3000 system This technology provides data on enzyme activity via measurement of the relative amounts of phosphorylated or unphosphorylated fluorescently labelled substrate peptide at the end of an enzymatic reaction. These different states of peptide are resolved by applying a potential difference across the sample. The presence of the charged phosphate group on the product (as opposed to the substrate) causes a different peptide mobility between the two peptides. This is visualized by excitation of the fluorescent label on the substrate and product peptides and represented as peaks within the analysis software.
(§3) In order to measure inhibitor activity of kinase inhibitors on this technology, a TTP Mosquito liquid handling instrument is used to place 0.25 ul of the appropriate concentration of inhibitor in 100% DMSO (for a dose response curve calculation) into each well of a 384-well plate. To this reaction components are added to a final volume of 25 ul. The table below indicates the sequences and concentrations for the assays described in this report. Standard components are 1 mM DTT (Sigma, D0632), 1 mM MgCl2 (Sigma, M1028), 100 mM HEPES pH 7.5 (Calbiochem, 391338), 0.015% Brij-35 (Sigma, B4184).
(§4) The reaction is incubated for 90 min at 25 C, and then stopped by the addition of 70 ul of Stop buffer (100 mM HEPES pH 7.5, 0.015% Brij-35, 10 mM EDTA (Sigma, E7889)).
(§5) The plate is read on a Caliper LC 3000 in an Off-Chip mobility shift assay format, on a 12-sipper chip. Unphosphorylated substrate and phosphorylated product peptide resolve as separate peaks allowing direct measurement of percentage of conversion of substrate to product. The percent conversion can be plotted against concentration of inhibitor to produce a sigmoidal dose response curve, from which an IC50 can be calculated using GeneData Condoseo or a similar product. Cellular activity assays

[2] = target: T2, Syk (Homo sapiens, UniProt P43405); experiment: Syk enzyme assay (flash plate / Caliper mobility shift)
T2 construct: purchased BPS Bioscience, CA, USA
Method: The kinase assay is performed either as 384-well Flashplate assay (for e.g. Topcount measurement) or as 384-well Image-Flashplate assay (for LEADseeker measurement).
2.5 nM SYK, 400 nM Biotin-Aha-Aha-[…] and 10 μM ATP (spiked with 0.3 μCi 33P-ATP/well) are incubated in a total volume of 50 μl (60 mM Hepes, 10 mM MgCl2, 1.2 mM Dithiothreitol, 0.02% Brij35, 0.1% BSA, pH 7.5) with or without test compound for 1 hours at 30° C. The reaction is stopped with 25 μl 200 mM EDTA. After 30 Min at 30° C. the liquid is removed and each well washed thrice with 100 μl 0.9% sodium chloride solution. Non-specific reaction is determined in presence of 0.1 μM Staurosporine. Radioactivity is measured with Topcount (when using Flashplates) or with LEADseeker (when using Image-Flashplates) respectively. Results (e.g. IC50-values) are calculated with program tools provided by the IT-department (e.g. Symyx Assay Explorer, Genedata Screener).
as §1, §2, §3, §4, §5

[3] = target: T3, KDR (Homo sapiens, UniProt P35968); experiment: KDR enzymatic assay (Caliper LifeSciences technology)
T3 construct: purchased BPS Bioscience, CA, USA
T3 sequence (P35968 20-1356): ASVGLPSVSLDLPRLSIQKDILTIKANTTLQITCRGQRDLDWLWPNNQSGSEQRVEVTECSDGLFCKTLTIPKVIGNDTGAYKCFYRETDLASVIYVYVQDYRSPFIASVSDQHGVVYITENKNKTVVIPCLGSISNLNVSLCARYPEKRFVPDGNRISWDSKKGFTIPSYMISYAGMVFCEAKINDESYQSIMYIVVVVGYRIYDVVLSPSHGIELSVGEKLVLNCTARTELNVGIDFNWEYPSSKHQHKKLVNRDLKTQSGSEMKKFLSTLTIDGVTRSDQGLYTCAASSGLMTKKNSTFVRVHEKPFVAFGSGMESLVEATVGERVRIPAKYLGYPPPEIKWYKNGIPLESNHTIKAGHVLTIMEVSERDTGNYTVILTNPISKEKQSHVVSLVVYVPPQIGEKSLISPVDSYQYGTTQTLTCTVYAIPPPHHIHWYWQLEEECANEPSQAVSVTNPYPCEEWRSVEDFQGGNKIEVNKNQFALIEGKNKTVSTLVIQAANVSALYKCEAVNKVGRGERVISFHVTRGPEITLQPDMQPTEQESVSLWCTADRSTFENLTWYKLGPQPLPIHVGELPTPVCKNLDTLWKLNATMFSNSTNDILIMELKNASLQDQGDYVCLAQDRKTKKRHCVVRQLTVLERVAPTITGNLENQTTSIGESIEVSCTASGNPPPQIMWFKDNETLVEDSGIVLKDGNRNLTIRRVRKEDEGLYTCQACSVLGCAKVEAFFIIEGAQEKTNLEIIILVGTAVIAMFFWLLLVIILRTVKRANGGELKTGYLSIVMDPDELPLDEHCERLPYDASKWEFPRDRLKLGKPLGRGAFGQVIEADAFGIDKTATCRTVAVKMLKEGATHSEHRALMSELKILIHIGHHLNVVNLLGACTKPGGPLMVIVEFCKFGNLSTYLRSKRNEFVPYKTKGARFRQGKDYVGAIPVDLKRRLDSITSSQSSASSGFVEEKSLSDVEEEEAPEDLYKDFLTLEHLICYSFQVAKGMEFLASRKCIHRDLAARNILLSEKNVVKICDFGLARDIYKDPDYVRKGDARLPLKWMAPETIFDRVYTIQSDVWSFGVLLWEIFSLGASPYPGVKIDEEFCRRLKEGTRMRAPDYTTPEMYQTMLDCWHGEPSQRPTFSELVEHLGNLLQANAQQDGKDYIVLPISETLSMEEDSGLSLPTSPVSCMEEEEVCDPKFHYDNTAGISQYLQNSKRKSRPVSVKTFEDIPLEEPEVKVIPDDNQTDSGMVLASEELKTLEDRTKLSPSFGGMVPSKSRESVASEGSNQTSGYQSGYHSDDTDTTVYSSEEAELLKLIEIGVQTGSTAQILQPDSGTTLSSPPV
Method: as §1, §2, §3, §4, §5

Cc1cc(C)cc(Nc2nc3c(Cl)nccn3n2)c1 [Example B1, 8-Chloro-[1,2, 4]triazolo[1,5-a]pyrazin-2-yl-(3,5-dimethyl-phenyl)-amine]
pIC50 [1]: 5.52 to 6.52 | pIC50 [2]: 4.30 to 5.52 | pIC50 [3]: 4.30 to 5.52

Clc1nccn2nc(Nc3ccccc3)nc12 [Example B5, 8-Chloro-[1,2,4]triazolo[1,5-a]pyrazin-2-yl-phenyl-amine]
pIC50 [1]: 4.30 to 5.52 | pIC50 [2]: 4.30 to 5.52

Cn1ccnc1Sc1ccc(Nc2nc3c(Cl)nccn3n2)cc1Cl [Example B6, [3-Chloro-4-(1-methyl-1H-imidazol-2-ylsulfanyl)-phenyl]-(8-chloro-[1,2,4]triazolo[1,5-a]pyrazin-2-yl)-amine]
pIC50 [1]: 4.30 to 5.52 | pIC50 [2]: 4.30 to 5.52

Cc1cccc(Nc2nc3c(-c4ccccc4)nccn3n2)c1 [Example C1, (8-Phenyl-[1,2,4]triazolo[1,5-a]pyrazin-2-yl)-m-tolyl-amine]
pIC50 [1]: 4.30 to 5.52 | pIC50 [2]: 5.52 to 6.52 | pIC50 [3]: > 6.52

COc1cc(OC)cc(-c2nccn3nc(Nc4ccccc4)nc23)c1 [Example C18, [8-(3,5-Dimethoxy-phenyl)-[1,2,4]triazolo[1,5-a]pyrazin-2-yl]-phenyl-amine]
pIC50 [1]: 4.30 to 5.52 | pIC50 [2]: > 6.52

Cc1cccc(Nc2nc3c(-c4cccnc4)nccn3n2)c1 [Example C21, (8-Pyridin-3-yl-[1,2,4]triazolo[1,5-a]pyrazin-2-yl)-m-tolyl-amine]
pIC50 [1]: 4.30 to 5.52 | pIC50 [2]: 5.52 to 6.52 | pIC50 [3]: 5.52 to 6.52

COc1cc(OC)cc(-c2nccn3nc(Nc4ccc(Sc5nccn5C)c(Cl)c4)nc23)c1 [Example C25, [3-Chloro-4-(1-methyl-1H-imidazol-2-ylsulfanyl)-phenyl]-[8-(3,5-dimethoxy-phenyl)-[1,2,4]triazolo[1,5-a]pyrazin-2-yl]-amine]
pIC50 [1]: 4.30 to 5.52 | pIC50 [2]: 4.30 to 5.52 | pIC50 [3]: 4.30 to 5.52

COc1cc(OC)cc(-c2nccn3nc(Nc4ccc5cnn(Cc6ccccc6)c5c4)nc23)c1 [Example C26, (1-Benzyl-1H-indazol-6-yl)-[8-(3,5-dimethoxy-phenyl)-[1,2,4]triazolo[1,5-a]pyrazin-2-yl]-amine]
pIC50 [1]: 5.52 to 6.52 | pIC50 [2]: 5.52 to 6.52

c1ccc(Cn2ncc3ccc(Nc4nc5c(-c6cccnc6)nccn5n4)cc32)cc1 [Example C27, (1-Benzyl-1H-indazol-6-yl)-(8-pyridin-3-yl-[1,2,4]triazolo[1,5-a]pyrazin-2-yl)-amine]
pIC50 [1]: 4.30 to 5.52 | pIC50 [2]: 5.52 to 6.52

NCCNc1nccn2nc(Nc3cccc(C(F)(F)F)c3)nc12 [Example C41, N^8-(2-Amino-ethyl)-N^2-(3-trifluoromethyl-phenyl)-[1,2,4]triazolo[1,5-a]pyrazine-2,8-diamine]
pIC50 [1]: 4.30 to 5.52 | pIC50 [2]: 4.30 to 5.52 | pIC50 [3]: 4.30 to 5.52

CN1CCN(CCCNc2nccn3nc(Nc4cccc(C(F)(F)F)c4)nc23)CC1 [Example C43, N^843-(4-Methyl-piperazin-1-yl)-propyq-N^2-(3-trifluoromethyl-phenyl)-[1,2,4]triazolo[1,5-a]pyrazine-2,8-diamine]
pIC50 [1]: 4.30 to 5.52 | pIC50 [3]: 4.30 to 5.52

COCCCNc1nccn2nc(Nc3cccc(C(F)(F)F)c3)nc12 [Example C44, N^8-(3-Methoxy-propyl)-N^2-(3-trifluoromethyl-phenyl)-[1,2,4]triazolo[1,5-a]pyrazine-2,8-diamine]
pIC50 [1]: 4.30 to 5.52 | pIC50 [2]: 4.30 to 5.52

c1ccc(Nc2nc3c(NCCCN4CCOCC4)nccn3n2)cc1 [Example C51, N^8-(3-Morpholin-4-yl-propyl)-N^2-phenyl-[1,2,4]triazolo[1,5-a]pyrazine-2,8-diamine]
pIC50 [1]: 5.52 to 6.52 | pIC50 [3]: 4.30 to 5.52

CN1CCN(CCCNc2nccn3nc(Nc4ccccc4)nc23)CC1 [Example C52, N^8-[3-(4-Methyl-piperazin-1-yl)-propyl]-N^2-phenyl-[1,2,4]triazolo[1,5-a]pyrazine-2,8-diamine]
pIC50 [1]: 4.30 to 5.52 | pIC50 [3]: 4.30 to 5.52

FC(F)(F)c1cccc(Nc2nccn3nc(Nc4ccccc4)nc23)c1 [Example C76, N^2-Phenyl-N^8-(3-trifluoromethyl-phenyl)-[1,2,4]triazolo[1,5-a]pyrazine-2,8-diamine]
pIC50 [1]: 4.30 to 5.52 | pIC50 [2]: 4.30 to 5.52

Cc1cc(C)cc(Nc2nccn3nc(Nc4ccc(Sc5nccn5C)c(Cl)c4)nc23)c1 [Example C77, N^2-[3-Chloro-4-(1-methyl-1H-imidazol-2-ylsulfanyl)-phenyl]-N^8-(3,5-dimethyl-phenyl)-[1,2,4]triazolo[1,5-a]pyrazine-2,8-diamine]
pIC50 [1]: 4.30 to 5.52 | pIC50 [2]: 4.30 to 5.52

COc1cc(Nc2nccn3nc(Nc4ccc(Sc5nccn5C)c(Cl)c4)nc23)cc(OC)c1 [Example C78, N^2-[3-Chloro-4-(1-methyl-1H-imidazol-2-ylsulfanyl)-phenyl]-N^8-(3,5-dimethoxy-phenyl)-[1,2,4]triazolo[1,5-a]pyrazine-2,8-diamine]
pIC50 [1]: 4.30 to 5.52 | pIC50 [2]: 4.30 to 5.52

Cc1cccc(Nc2nccn3nc(Nc4ccc(Sc5nccn5C)c(Cl)c4)nc23)c1 [Example C79, N^2-[3-Chloro-4-(1-methyl-1H-imidazol-2-ylsulfanyl)-phenyl]-N^8-m-tolyl-[1,2,4]triazolo[1,5-a]pyrazine-2,8-diamine]
pIC50 [1]: 5.52 to 6.52 | pIC50 [2]: 4.30 to 5.52

Cn1ccnc1Sc1ccc(Nc2nc3c(Nc4ccccc4)nccn3n2)cc1Cl [Example C80, N^2-[3-Chloro-4-(1-methyl-1H-imidazol-2-ylsulfanyl)-phenyl]-N^8-phenyl-[1,2,4]triazolo[1,5-a]pyrazine-2,8-diamine]
pIC50 [1]: 5.52 to 6.52 | pIC50 [2]: 4.30 to 5.52

Cc1cc(C)cc(Nc2nccn3nc(Nc4ccc5cnn(Cc6ccccc6)c5c4)nc23)c1 [Example C81, N^2-(1-Benzyl-1H-indazol-6-yl)-N^8-(3,5-dimethyl-phenyl)-[1,2,4]triazolo[1,5-a]pyrazine-2,8-diamine]
pIC50 [1]: 4.30 to 5.52 | pIC50 [2]: 4.30 to 5.52

c1ccc(Cn2ncc3ccc(Nc4nc5c(Nc6ccccc6)nccn5n4)cc32)cc1 [Example C85, N^2-(1-Benzyl-1H-indazol-6-yl)-N^8-phenyl-[1,2,4]triazolo[1,5-a]pyrazine-2,8-diamine]
pIC50 [1]: 5.52 to 6.52

Cc1cc(C)cc(Nc2nccn3nc(Nc4cccc(C(F)(F)F)c4)nc23)c1 [Example C86, N^8-(3,5-Dimethyl-phenyl)-N^2-(3-trifluoromethyl-phenyl)-[1,2,4]triazolo[1,5-a]pyrazine-2,8-diamine]
pIC50 [1]: 4.30 to 5.52

COc1cc(Nc2nccn3nc(Nc4cccc(C(F)(F)F)c4)nc23)cc(OC)c1 [Example C87, N^8-(3,5-Dimethoxy-phenyl)-N^2-(3-trifluoromethyl-phenyl)-[1,2,4]triazolo[1,5-a]pyrazine-2,8-diamine]
pIC50 [1]: 4.30 to 5.52

FC(F)(F)c1cccc(Nc2nc3c(Nc4ccccc4)nccn3n2)c1 [Example C88, N^8-Phenyl-N^2-(3-trifluoromethyl-phenyl)-[1,2,4]triazolo[1,5-a]pyrazine-2,8-diamine]
pIC50 [1]: 4.30 to 5.52

O=C1Cc2cc(Nc3nc4c(-c5cnc6ccccc6c5)nccn4n3)ccc2N1 [Example C263, 5-(8-Quinolin-3-yl-[1,2,4]triazolo[1,5-a]pyrazin-2-ylamino)-1,3-dihydro-indol-2-one]
pIC50 [1]: 4.30 to 5.52 | pIC50 [2]: 4.30 to 5.52
